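The concentration for 50% growth inhibition is given as GI50. TGI denotes the concentration required for complete inhibition of growth.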
How the values were obtained:
Assay in all cases: NCI tumour cell line growth inhibition, 384-well format
RPMI-8226 leukemia = test system: RPMI-8226 leukemia
HOP-92 NSCLC = test system: HOP-92 NSCLC
TK-10 renal = test system: TK-10 renal
CCRF-CEM leukemia = test system: CCRF-CEM leukemia
SN12C renal = test system: SN12C renal
ACHN renal = test system: ACHN renal
HT29 colon = test system: HT29 colon
OVCAR-8 ovarian = test system: OVCAR-8 ovarian
HCC-2998 colon = test system: HCC-2998 colon
SW-620 colon = test system: SW-620 colon
BT-549 breast = test system: BT-549 breast
NCI-H522 lung = test system: NCI-H522 lung
NCI-H23 lung = test system: NCI-H23 lung
MCF7 breast = test system: MCF7 breast
SNB-19 CNS = test system: SNB-19 CNS
SK-MEL-28 melanoma = test system: SK-MEL-28 melanoma
HL-60(TB) leukemia = test system: HL-60(TB) leukemia
SF-539 CNS = test system: SF-539 CNS
HS 578T breast = test system: HS 578T breast
786-0 renal = test system: 786-0 renal
UO-31 renal = test system: UO-31 renal
M14 melanoma = test system: M14 melanoma
NCI/ADR-RES ovarian = test system: NCI/ADR-RES ovarian
NCI-H460 NSCLC = test system: NCI-H460 NSCLC
CAKI-1 renal = test system: CAKI-1 renal
T-47D breast = test system: T-47D breast
MDA-MB-435 melanoma = test system: MDA-MB-435 melanoma
UACC-62 melanoma = test system: UACC-62 melanoma
RXF 393 renal = test system: RXF 393 renal
PC-3 prostate = test system: PC-3 prostate
MOLT-4 leukemia = test system: MOLT-4 leukemia
IGROV1 ovarian = test system: IGROV1 ovarian
NCI-H322M lung = test system: NCI-H322M lung
K-562 leukemia = test system: K-562 leukemia
OVCAR-4 ovarian = test system: OVCAR-4 ovarian
MDA-MB-468 breast = test system: MDA-MB-468 breast
EKVX NSCLC = test system: EKVX NSCLC
A498 renal = test system: A498 renal
LOX IMVI melanoma = test system: LOX IMVI melanoma
COLO 205 colon = test system: COLO 205 colon
SR leukemia = test system: SR leukemia
A549 NSCLC = test system: A549 NSCLC
SNB-75 CNS = test system: SNB-75 CNS
KM12 colon = test system: KM12 colon
NCI-H226 lung = test system: NCI-H226 lung
SK-MEL-5 melanoma = test system: SK-MEL-5 melanoma
HOP-62 NSCLC = test system: HOP-62 NSCLC

## Cn1cc(-c2cc3c(N4CCN(c5ncc([C@@](C)(N)c6ccc(F)cc6)cn5)CC4)ncnn3c2)cn1
RPMI-8226 leukemia
  GI50: 1.59 µM
  TGI: 3.21 µM
HOP-92 NSCLC
  GI50: 2.66 µM
  TGI: 10.2 µM
TK-10 renal
  GI50: 7.29 µM
  TGI: 48.2 µM
CCRF-CEM leukemia
  GI50: 2.78 µM
  TGI: 10.2 µM
SN12C renal
  GI50: 4.54 µM
  TGI: 16.7 µM
ACHN renal
  GI50: 3.7 µM
  TGI: 13.9 µM
HT29 colon
  GI50: 2.65 µM
  TGI: > 26.2 µM
OVCAR-8 ovarian
  GI50: 4.07 µM
  TGI: > 50.8 µM
HCC-2998 colon
  GI50: 2.15 µM
  TGI: 3.82 µM
SW-620 colon
  GI50: 2.97 µM
  TGI: 11.5 µM
BT-549 breast
  GI50: 2.52 µM
  TGI: 7.85 µM
NCI-H522 lung
  GI50: 2.41 µM
  TGI: 23.3 µM
NCI-H23 lung
  GI50: 2.23 µM
  TGI: 14.2 µM
MCF7 breast
  GI50: 2.31 µM
  TGI: 8.7 µM
SNB-19 CNS
  GI50: 5.93 µM
  TGI: 24.4 µM
SK-MEL-28 melanoma
  GI50: 6.9 µM
  TGI: 19.7 µM
HL-60(TB) leukemia
  GI50: 2.24 µM
  TGI: 4.94 µM
SF-539 CNS
  GI50: 2.17 µM
  TGI: 12.2 µM
HS 578T breast
  GI50: 1.75 µM
  TGI: 5.83 µM
786-0 renal
  GI50: 1.76 µM
  TGI: 3.37 µM
UO-31 renal
  GI50: 3.6 µM
  TGI: 14.7 µM
M14 melanoma
  GI50: 4.42 µM
  TGI: 19.2 µM
NCI/ADR-RES ovarian
  GI50: 3.19 µM
  TGI: 17.9 µM
NCI-H460 NSCLC
  GI50: 3.73 µM
  TGI: 12.5 µM
CAKI-1 renal
  GI50: 3.71 µM
  TGI: 17.6 µM
T-47D breast
  GI50: 1.49 µM
  TGI: 6.16 µM
MDA-MB-435 melanoma
  GI50: 7.13 µM
  TGI: 27 µM
UACC-62 melanoma
  GI50: 4.42 µM
  TGI: 17.8 µM
RXF 393 renal
  GI50: 1.03 µM
  TGI: 3.02 µM
PC-3 prostate
  GI50: 2.86 µM
  TGI: 13.9 µM
MOLT-4 leukemia
  GI50: 1.38 µM
  TGI: 2.73 µM
IGROV1 ovarian
  GI50: 4.45 µM
  TGI: 16.7 µM
NCI-H322M lung
  GI50: 6.68 µM
  TGI: 21.5 µM
K-562 leukemia
  GI50: 1.12 µM
  TGI: 2.79 µM
OVCAR-4 ovarian
  GI50: 2.96 µM
  TGI: 12.2 µM
MDA-MB-468 breast
  GI50: 1.12 µM
  TGI: 3.03 µM
EKVX NSCLC
  GI50: 2.97 µM
  TGI: 31.6 µM
A498 renal
  GI50: 3.12 µM
  TGI: 9.79 µM
LOX IMVI melanoma
  GI50: 0.881 µM
  TGI: 3.47 µM
COLO 205 colon
  GI50: 2.73 µM
  TGI: 6.51 µM
SR leukemia
  GI50: 1.58 µM
  TGI: 3.02 µM
A549 NSCLC
  GI50: 4.21 µM
  TGI: 36.5 µM
SNB-75 CNS
  GI50: 2.16 µM
  TGI: 7.03 µM
KM12 colon
  GI50: 4.11 µM
  TGI: 28.1 µM
NCI-H226 lung
  GI50: 3.51 µM
  TGI: 28.2 µM
SK-MEL-5 melanoma
  GI50: 1.85 µM
  TGI: 3.98 µM
HOP-62 NSCLC
  GI50: 3.14 µM
  TGI: > 50.1 µM
